Test [1] relates to Sclerotinia sclerotiorum. The test is described as follows: Antifungal activity against Sclerotinia rot of kidney bean (sprayed cotyledons, mycelial inoculation). Type of test: in vivo. Particulars: 500 ppm a.i.; for Average infected area: 28°C, RH 100%, 4 days; for Controlled value: (1-S/S₀)×100, 4 days. The protocol:
A 20 ml sample solution containing a predetermined concentration of the active compound was sprayed on 10 cotyledons of a kidney bean (variety: Masterpiece), which were dried in a room. After drying, the mycelia of Sclerotinia sclerotiorum grown on a PDA culture medium was inoculated after punching with a cork borer. The incubation was carried out at a temperature of 28°C and an RH of 100% for 4 days. The infected area was measured. Ten tests were carried out in each run. […]

The subject of test [2] is Botrytis cinerea. The test is described as follows: Curative activity against gray mold of egg plant (detached leaf, spray after disease development). Format: in vivo. The note with it: 125 ppm a.i. The procedure:
A second developed leaf of egg plant (variety: Senryo #12) was placed in a petri dish and the mycelia of Botrytis cinerea grown on a PDA culture medium was inoculated after punching with a cork borer on the center of the leaf. The incubation was carried out at 25°C under humid condition for 24 hours. […] After air drying, the incubation was carried out at 25°C under humid condition. The diameter of the infected area was measured every day for 5 days after the application. Eight tests were carried out in each run.

The test system of test [3] is Botrytis cinerea. The test is described as follows: Antifungal activity against Botrytis cinerea by agar dilution method. Type of test: cell-based. Particulars: 120 h, concentration for 90% inhibition of mycelium growth, potato-agar medium, 25°C, 5 days, read-out: EC₉₀. The procedure:
The culture medium thus obtained was allowed to stand in a room with constant temperature for predetermined days. Thereafter, the growth of mycelium of the microorganism was measured and the concentration for 90% inhibition of the growth (EC₉₀) was determined. Four tests were carried out in each run. The tests for microorganisms were carried out at a temperature of 25°C for 5 days.

For test [4], the system named is Botrytis cinerea. The test is described as follows: Activity persistence against gray mold of egg plant (spray 1 to 10 days before inoculation). Type of test: in vivo. Particulars: 250 ppm a.i.
Test [5] has as its system rice blast fungus (Pyricularia oryzae). Format: in vivo. Particulars: 500 ppm a.i., 10 days after inoculation; for No. of leaves in each infection degree 0: index 0 = 0 lesions per leaf; for No. of leaves in each infection degree 1: index 1 = 1 lesion per leaf; for No. of leaves in each infection degree 2: index 2 = 2-5 lesions per leaf; for No. of leaves in each infection degree 3: index 3 = 6-10 lesions per leaf; for No. of leaves in each infection degree 4: index 4 = 11 or more lesions per leaf; for % of Infected leaves / Infection degree / No. of infected leaves: rice seedlings.

The mark [6] stands for this setting: 1 day between application and observation.
The mark [7] stands for this setting: 2 days between application and observation.
Setting [8] is: 3 days between application and observation.
[9] abbreviates: 4 days between application and observation.
[10] abbreviates: 5 days between application and observation.
[11] abbreviates: 1 day between application and inoculation.
Where [12] appears, read: 4 days between application and inoculation.
Setting [13] is: 7 days between application and inoculation.
Where [14] appears, read: 10 days between application and inoculation.

SMILES strings stand for the structures. Values after ≈ are worked out from the molar mass of the structure shown.

`CCCC(c1ccc(Cl)cc1Cl)C(C#N)n1ccnc1` (centres unmarked) [A, 3-(2,4-dichlorophenyl)-2-(1-imidazolyl)hexanenitrile] gave an Average infected area in test [1] of 40%. In test [1], this compound had a Controlled value of 60%. Further, the Diameter of lesion in test [2] (setting [6]) is on record as 10 mm; in test [2] (setting [7]), 18 mm; in test [2] (setting [8]), 23 mm; in test [2] (setting [9]), 26 mm; in test [2] (setting [10]), 30 mm. The EC90 in test [3] was found to be 10.9 µg/mL (≈ 35.4 µM). Also, the Infection degree in test [4] (setting [11]) was determined as 25.0; in test [4] (setting [12]) it was 37.5; in test [4] (setting [13]), 45.0; in test [4] (setting [14]) it was 62.5.
On to `CCC(c1ccc(Cl)cc1Cl)C(C#N)c1cccnc1` (centres unmarked) [Compound 1, 3-(2,4-dichlorophenyl)-2-(3-pyridyl)pentanenitrile], for which, in test [1], the Average infected area is reported as 5% and the Controlled value was found to be 95%. Also, the Diameter of lesion in test [2] (setting [6]) is 10 mm. The Diameter of lesion in test [2] (setting [7]) was 15 mm. In addition, the Diameter of lesion in test [2] (setting [8]) was found to be 17 mm. The Diameter of lesion in test [2] (setting [9]) turned out to be 19 mm. Also, the Diameter of lesion in test [2] (setting [10]) is recorded as 19 mm. In test [3], the EC90 turned out to be 1.4 µg/mL (≈ 4.59 µM). Moreover, the Infection degree in test [4] (setting [11]) turned out to be 10.0. In addition, the Infection degree in test [4] (setting [12]) is 12.0. Moreover, the Infection degree in test [4] (setting [13]) is on record as 17.5. Moreover, the Infection degree in test [4] (setting [14]) is listed as 17.5. Moreover, in test [5], the “No. of leaves in each infection degree 0” value is 145, the “No. of leaves in each infection degree 1” value is on record as 48, the “No. of leaves in each infection degree 2” value is 13 and the “No. of leaves in each infection degree 3” value is on record as 0. Also, in test [5], the “No. of leaves in each infection degree 4” value came out at 0, the “% of Infected leaves” value worked out at 29.6%, the Infection degree came out at 9.0 and the “No. of infected leaves” value is listed as 206.
With `CCC(c1ccc(F)cc1Cl)C(C#N)c1cccnc1` (centres unmarked) [Compound 12, 3-(2-chloro-4-fluorophenyl)-2-(3-pyridyl)pentanenitrile], the Average infected area in test [1] amounted to 5%. In test [1], this compound returned a Controlled value of 95%. The Diameter of lesion in test [2] (setting [6]) is 10 mm; in test [2] (setting [7]), 15 mm; in test [2] (setting [8]) it was 17 mm; in test [2] (setting [9]), 19 mm; in test [2] (setting [10]), 19 mm. For the same compound, in test [3], the EC90 was found to be 0.9 µg/mL (≈ 3.12 µM). The Infection degree in test [4] (setting [11]) amounted to 10.0; in test [4] (setting [12]) it was 11.0; in test [4] (setting [13]), 12.0; in test [4] (setting [14]) it was 15.0.
Consider `CC12CC1(C)C(=O)N(c1cc(Cl)cc(Cl)c1)C2=O` (centres unmarked) [D, N-(3′,5′-dichlorophenyl)-1,2-dimethylcyclopropane-1,2-dicarboximide], for which the Infection degree in test [4] (setting [11]) was found to be 12.0; in test [4] (setting [12]) it was 15.5; in test [4] (setting [13]), 20.5; in test [4] (setting [14]), 25.0.
`COC(=O)NC(=S)Nc1ccccc1NC(=S)NC(=O)OC` [E, dimethyl-4,4′-o-phenylene-bis(3-thioalfanate)] gave an Average infected area in test [1] of 20%. The Controlled value in test [1] came out at 80%. Besides, the Diameter of lesion is listed as 10 mm in test [2] (setting [6]); 18 mm in test [2] (setting [7]); 21 mm in test [2] (setting [8]); 22 mm in test [2] (setting [9]); 26 mm in test [2] (setting [10]).
Take `CC(C)OC(=O)C(C(=O)OC(C)C)=C1SCCS1` [F, diisopropyl-1,3,-dithiolan-2-ylidene malonate]: in test [5], the “No. of leaves in each infection degree 0” value amounted to 128, the “No. of leaves in each infection degree 1” value was 45, the “No. of leaves in each infection degree 2” value is given as 12 and the “No. of leaves in each infection degree 3” value was 0. In test [5], the “No. of leaves in each infection degree 4” value is on record as 0, the “% of Infected leaves” value came to 30.8%, the Infection degree was 9.3 and the “No. of infected leaves” value was 185.
Regarding `O=C1OCc2c(Cl)c(Cl)c(Cl)c(Cl)c21` [G, 4,5,6,7-tetrachlorophthalide], in test [5], the “No. of leaves in each infection degree 0” value came out at 151, the “No. of leaves in each infection degree 1” value is 28, the “No. of leaves in each infection degree 2” value turned out to be 1 and the “No. of leaves in each infection degree 3” value was determined as 0. In addition, in test [5], the “No. of leaves in each infection degree 4” value was 0, the “% of Infected leaves” value was 16.1%, the Infection degree is 4.2 and the “No. of infected leaves” value was found to be 180.

These data come from EP0311051A2, “Pyridylacetonitrile derivatives” (priority 1987, dated 1989).
